Measurements published in PubChem BioAssay AID652087 (The Scripps Research Institute Molecular Screening Center, 2013).
Active and inactive are the calls of the source.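 Rule for the calls: active = inhibition above 30%; inactive = inhibition at or below 30%.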

molecular target: Sphingosine 1-phosphate receptor 1 (Homo sapiens) (UniProt P21453); test: blockade of S1P-driven S1P1 signalling – cell-based, fluorescence, counter-screen for OPRK1 antagonist project, confirmation (AID 652087); settings: Tango EDG-1-bla U2OS, beta-lactamase FRET, S1P antagonism; at 9 µM; stronger effect = higher value
Sequence (P21453 whole entry, looked up): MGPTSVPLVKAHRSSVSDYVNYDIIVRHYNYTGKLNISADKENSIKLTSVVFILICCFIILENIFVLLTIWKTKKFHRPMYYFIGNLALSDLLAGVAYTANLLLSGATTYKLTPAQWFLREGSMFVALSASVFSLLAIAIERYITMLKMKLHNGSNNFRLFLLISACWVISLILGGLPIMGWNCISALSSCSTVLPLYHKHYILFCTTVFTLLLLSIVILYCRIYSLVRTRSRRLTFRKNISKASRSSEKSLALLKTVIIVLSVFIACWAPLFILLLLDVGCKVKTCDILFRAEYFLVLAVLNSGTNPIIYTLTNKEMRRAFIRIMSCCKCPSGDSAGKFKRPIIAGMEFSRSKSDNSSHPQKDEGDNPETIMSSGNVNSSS

Row | Structure (SMILES) | inhibition
1 | O=C(Nc1ccc(Cl)cc1Cl)c1cc([N+](=O)[O-])cc2c1-c1ccc([N+](=O)[O-])cc1C2=O | 63.3%
2 | O=[N+]([O-])c1ccc(N/N=C2\CCOc3ccc(F)cc32)cc1 | 23.2% (inactive)
3 | O=C(c1cnn(-c2ccc(Cl)cc2)c1C(F)(F)F)N1CCN(c2ncnc3ccsc23)CC1 | -19.1% (inactive)
4 | Cc1ccc(/C=c2\sc3nc4ccccc4n3c2=O)o1 | -0.81% (inactive)
5 | COc1ccccc1NC(=O)NCCN1CCN(Cc2ccccc2)CC1 | 66.8%
6 | Nc1c(C(=O)c2ccccc2)sc2nsc(SCCN3CCCC3)c12 | 27.5% (inactive)
7 | S=C(NNc1c(Cl)cncc1Cl)Nc1ccc(Cl)cc1Cl | 45.3%
8 | COc1cccc(C(=O)c2sc3nsc(SCc4ccc(F)cc4)c3c2N)c1 | -12.7% (inactive)
9 | C#Cc1cccc(NC(=O)c2sc3nc4c(c(-c5cccs5)c3c2N)CCCC4)c1 | 46.3%
10 | CN(C)c1cc(NC(=O)Nc2ccccc2)c2ccccc2n1 | -14.9% (inactive)
11 | CCOC(=O)C1CCN(Cc2cccc(NC(=O)c3cccs3)c2)CC1 | 15.1% (inactive)
12 | Nc1c(C(=O)N/N=C/c2ccc3c(c2)OCO3)sc2nnc(-c3ccccc3)c(-c3ccccc3)c12 | 65%
13 | COC(=O)/C=C1\SC(=Nc2ccc(Cl)cc2)N(c2ccc(Cl)cc2)C1=O | 42.5%
14 | C=CCNC(=S)NNC(=O)c1oc2nc(-c3ccc(Cl)cc3)cc(-c3ccccc3)c2c1N | 8.18% (inactive)
15 | CCCCCC[n+]1ccccc1/C=C/c1ccc(N(C)C)cc1 | 99.1%
16 | O=[N+]([O-])c1ccc(N/N=C/c2ccc(-c3cccs3)s2)nc1 | 79.4%
17 | CCCCNc1ccc2c3c(cccc13)C(=O)N(CCCC)C2=O | 93.5%
18 | O=c1c2cc(-c3ccccc3)sc2nnn1/N=C/c1cccs1 | 15.2% (inactive)
19 | O=C(N/C(=C\c1ccc(-c2ccc([N+](=O)[O-])cc2)o1)c1nc2ccccc2[nH]1)c1ccccc1 | 73.1%
20 | COC(=O)c1ccc(/C=C2\C(=O)Nc3ccccc32)n1-c1ccc(F)cc1 | 9.9% (inactive)
21 | COc1cc([N+](=O)[O-])c(OC)cc1SCc1n[nH]c(=S)n1-c1ccc(C)cc1 | 3.13% (inactive)
22 | CCOC(=O)[C@@H](N)CCSC | -3.49% (inactive)
23 | Oc1c(Cl)cc(Cl)cc1C1Nc2cc(Cl)c(C(F)(F)F)cc2N1 (stereo unspecified) | 38.5%
24 | O=[N+]([O-])c1c(Sc2ccc(Cl)cc2)ccc2nsnc12 | 76.9%
25 | COc1ccc([N+](=O)[O-])c(S(=O)(=O)c2ccc(Cl)cc2)n1 | 12.7% (inactive)
26 | COC(=O)c1cnn(-c2ccc(Cl)cc2)c1C=C(C#N)C#N | 45.1%
27 | O=C(/C=C/c1cc(-c2ccccc2)c(C(F)(F)F)s1)c1cccs1 | 23.6% (inactive)
28 | CCN(CC)c1ccc(/C=C/c2ccc([N+](=O)[O-])cc2C#N)cc1 | 55.7%
29 | O=C1c2ccc(Cl)c3c(N4CCSCC4)ccc(c23)C(=O)N1c1ccccc1 | -15.7% (inactive)

More lines, now with the values ahead:

Row | inhibition | Structure (SMILES)
30 | 15.4% (inactive) | CCOC(=O)C1CCN(Cc2cccc(NC(=O)c3ccco3)c2)CC1
31 | 59.2% | Cn1c(=O)c2cc3cc(Cl)ccc3nc2c2c(=O)n(-c3ccccc3)c(=O)n(-c3ccccc3)c21
32 | -6.28% (inactive) | CC(=O)Nc1onc(C)c1-c1nc(-c2ccc(Cl)cc2Cl)cs1
33 | 47.1% | NC(=NC(=O)c1cccc(C(F)(F)F)c1)c1ccc(C(F)(F)F)cn1
34 | -1.54% (inactive) | CCOC(=O)c1cc(C(=O)OC)c(C)nc1N1CCC(NC2CCCCC2O)CC1 (stereo unspecified)
35 | 4.01% (inactive) | c1ccc(-c2cc3ncnc(NCc4ccc5c(c4)OCO5)c3s2)cc1
36 | -0.3% (inactive) | CN(C)c1cccc2c1c(NC(=O)Nc1ccc(OCc3ccccc3)cc1)nn2C
37 | -11.8% (inactive) | CS(=O)(=O)/C(C#N)=C\c1ccc(Cl)s1
38 | 10.1% (inactive) | CSc1ccc(/C=C/c2onc(C)c2[N+](=O)[O-])s1
39 | -6.9% (inactive) | CC(CCC(C)OC(=O)c1ccccc1C(=O)O)OC(=O)c1ccccc1C(=O)O (stereo unspecified)
40 | 86.5% | N#Cc1cccnc1NNC(=O)COCC(=O)O
41 | 124% | O=[N+]([O-])c1ccc(C2=NN(c3ccccc3)C(c3ccco3)C2)cc1 (stereo unspecified)
42 | 67.9% | O=[N+]([O-])c1ccc(-c2ccc(/C=N/NC(=S)Nc3cccc(F)c3)o2)cc1
43 | 5.35% (inactive) | O=C(Nc1ccc([N+](=O)[O-])cc1)Nc1csc(-c2cccnc2)n1
44 | 14.5% (inactive) | N#Cc1c(S/C=C(\O)c2cc3ccccc3o2)nc2c(c1C(F)(F)F)CCCC2
45 | -25.2% (inactive) | CCOC(=O)c1ccc(N2CC3CCCCN3C2c2cccc(OC)c2O)cc1 (stereo unspecified)
46 | -3.44% (inactive) | O=C(O)C(F)(F)C(F)(F)C(=O)NCc1cccc(Cl)c1
47 | 9.19% (inactive) | COC(=O)c1cc(-c2ccc(OC)cc2)c(-c2ccc(OC)cc2)s1
48 | 33.4% | C=CCn1c(-c2sc3nnc(-c4ccccc4)c(-c4ccccc4)c3c2N)n[nH]c1=S

Row | inhibition | Structure (SMILES)
49 | 15.3% (inactive) | N#Cc1cccc(C#N)c1Oc1ccc(N)cc1
50 | 52.1% | COc1cccc(/C=C(\C#N)c2ccc([N+](=O)[O-])cc2)c1OC
51 | -19.8% (inactive) | O=C(NNC(=O)C(F)(F)F)c1ccc[nH]1
52 | 51.2% | CCCCCCCCCCCC(=O)ON1C(=O)CCC1=O
53 | -5.53% (inactive) | COc1ccccc1C1CCN(Cc2ccc3c(c2)CCC(C)(C)O3)CC1
54 | 51.5% | O=C(Nc1ccc(F)c(Cl)c1)c1cc(Br)ccc1O
55 | 71.7% | CCOC(=O)c1cn[nH]c1NC(=S)Nc1cccc(C(F)(F)F)c1
56 | 11.6% (inactive) | COc1ccc(OS(=O)(=O)c2sc(Br)cc2Br)cc1
57 | 16.3% (inactive) | CC(=O)N1CCC(C(=O)O/N=C(\N)c2ccc(Cl)cc2)CC1
58 | 37.2% | CN(C)c1ccc(-n2nnnc2SCc2ccc(Cl)cc2)cc1
59 | -9.65% (inactive) | Clc1ccc2c(Nc3ccc4c(c3)OCO4)ccnc2c1
60 | 92.1% | O=[N+]([O-])c1ccc(-c2ccc(/C=N/Nc3ccccc3)o2)cc1
61 | 94.9% | Clc1ccc2nc3c(nc2c1)Nc1ccccc1S3
62 | 2.16% (inactive) | CC1COC(c2cccc([N+](=O)[O-])c2)N1 (stereo unspecified)
63 | 18.7% (inactive) | CSc1sc(C(=O)NC(=O)Nc2ccc(Cl)cc2)c2c1-c1nocc1CC2
64 | 2.13% (inactive) | CC(=O)c1sc2nc(-c3cccs3)cc(C(F)(F)F)c2c1N
65 | 36.8% | O=[N+]([O-])c1ccc(N2CCc3ccccc32)cc1
66 | 65.4% | Brc1ccc(-c2csc(Nc3ccncc3)n2)cc1
